Results published in the NIST ThermoML archive (doi:10.1021/je100484n).

Legend:
[1] = refractive index (Na D-line) (dimensionless); xn = mol fraction of the nth substance listed; details: 101 kPa, Liquid
[2] = 101 kPa, Liquid
[3] = refractive index (Na D-line) (dimensionless); details: 101.33 kPa, Liquid

CCCCCCC [heptane] + NC1CCCCC1
[1], x2 = 0
Details	refractive index
303.15 K	1.38259
308.15 K	1.37995
313.15 K	1.37731
318.15 K	1.37463
323.15 K	1.37197

CC(C)(C)O [2-methylpropan-2-ol] + NC1CCCCC1
[1], x1 = 1
Details	refractive index
303.15 K	1.38222
308.15 K	1.37947
313.15 K	1.37667
318.15 K	1.37384
323.15 K	1.37097

CCCCCCC [heptane]
Details	mass density, 303.15 K [kg/m3]	mass density, 308.15 K [kg/m3]	mass density, 313.15 K [kg/m3]	mass density, 318.15 K [kg/m3]	mass density, 323.15 K [kg/m3]	refractive index, 303.15 K	refractive index, 308.15 K	refractive index, 313.15 K	refractive index, 318.15 K	refractive index, 323.15 K
[2]	675.229	670.941	666.621	662.273	657.896	–	–	–	–	–
[3]	–	–	–	–	–	1.38259	1.37995	1.37731	1.37463	1.37197

NC1CCCCC1 [cyclohexylamine] + CC(C)(C)O
refractive index, [1]
Details	303.15 K	308.15 K	313.15 K	318.15 K	323.15 K
x2 = 0	1.45375	1.45114	1.44856	1.44599	1.44336
x2 = 0.0508	1.45149	1.44888	1.44629	1.44368	1.44108
x2 = 0.1002	1.44914	1.44655	1.44395	1.44132	1.43876
x2 = 0.1502	1.44664	1.44404	1.44142	1.43884	1.43629
x2 = 0.2001	1.44406	1.44146	1.43888	1.4363	1.43371
x2 = 0.3005	1.43846	1.43586	1.43328	1.43068	1.42812
x2 = 0.3991	1.4325	1.42991	1.42732	1.42471	1.42218
x2 = 0.4996	1.42579	1.42321	1.42064	1.41804	1.41553
x2 = 0.5998	1.41855	1.41598	1.41339	1.41077	1.40818
x2 = 0.6997	1.41063	1.40805	1.40544	1.40284	1.40018
x2 = 0.7999	1.40191	1.39934	1.39676	1.39405	1.3914
x2 = 0.8712	1.39554	1.39281	1.39012	1.38734	1.38459
x2 = 0.8992	1.39261	1.38996	1.38723	1.3845	1.38176
x2 = 0.9504	1.38751	1.3848	1.38207	1.37923	1.37642
